According to patent EP0067711A2, “New 1-benzyl-3,4-dihydro-isoquinoline derivative” (CHINOIN Gyogyszer és Vegyészeti Termékek Gyára RT., priority 1981, dated 1982):

What was measured:
[1] = test system: acute coronary insufficiency induced by vasopressine; test: anti-angina activity: inhibition of vasopressine-induced acute coronary insufficiency (rise of T-wave on ECG), method of Papp and Szekeres; assay type: in vivo, rats belonging to the CFY strain; settings: vasopressine 2 IU/kg i.v., pentobarbital anaesthetized CFY rats; papaverin = 1
[2] = test system: haemodynamic and cardiovascular system; test: general effects on the haemodynamic and cardiovascular system in pentobarbital anaesthetized dogs; assay type: in vivo; set-up: A. vertebralis flow, Changed value: unit not given here; settings: 1 mg/kg i.v.
[3] = test system: electric fibrillation threshold of the auricle and ventricle; test: antiarrhythmial effect: change of electric fibrillation threshold in chloralose-urethane anaesthetized cats; assay type: in vivo; settings: 1 mg/kg i.v.
Procedure: The antiarrhythmial effect is determined on chloralose-urethane anaesthetized cats [500/300 mg/kg i.p.] by measuring the changes of the electric fibrillation threshold of the auricle and ventricle respectively [method of Szekeres, Méhes and Papp: Brit. 0. Pharmacol. 17, 167 (1961) and that of Szekeres and Papp: Hdb. exp. Pharmacol. 16/3, 131 (1975) respectively]. The general effects exerted on the haemodynamic and cardiovascular system are tested on pentobarbital anaesthetized dogs (35 mg/kg i.v.).

CCOc1cc(CC2=NCCc3cc(OCC)c(OCC)cc32)ccc1O [Formula VII, 6,7-diethoxy-1-(3-ethoxy-4-hydroxy-benzyl)-3,4-dihydro-isoquinoline, reference compound]
anti-angina activity related to that of papaverin [1]: 1.28
A. carotis flow, Duration of effect [2]: 12 min
A. carotis flow, Percental difference [2]: -12
A. carotis resistance, Duration of effect [2]: 15 min
A. femoralis flow, Duration of effect [2]: 11 min
A. femoralis resistance, Duration of effect [2]: 18 min
A. vertebralis flow, Duration of effect [2]: 7 min
A. vertebralis resistance, Duration of effect [2]: 12 min
A. vertebralis resistance, Percental difference [2]: +12
Arterial blood pressure, Duration of effect [2]: 8 min
Arterial blood pressure, Percental difference [2]: -22
Contractibility of the left ventricle (dp/dt), Percental difference [2]: -13
Coronary flow, Duration of effect [2]: 15 min
Coronary flow, Percental difference [2]: +18
Coronary resistance, Duration of effect [2]: 11 min
Coronary resistance, Percental difference [2]: -22
Efficiency of cardial function, Duration of effect [2]: 20 min
Efficiency of cardial function, Percental difference [2]: -13
Frequence volume, Duration of effect [2]: 5 min
Function of the left ventricle, Duration of effect [2]: 13 min
Function of the left ventricle, Percental difference [2]: -19
Heart frequence/min, Duration of effect [2]: 7 min
Minute volume, Duration of effect [2]: 3 min
Myocardial oxygenization (O2 supply per O2 consumption), Duration of effect [2]: 18 min
Myocardial oxygenization (O2 supply per O2 consumption), Percental difference [2]: +10
Oxygen consumption of the left ventricle, Duration of effect [2]: 9 min
Total peripherial resistance, Duration of effect [2]: 14 min
Total peripherial resistance, Percental difference [2]: -32
Efficiency of cardial function, Changed value ([2]; average + S.E., basic value 0.32 ± 0.03): 0.28 ± 0.05 mkg/ml/100 g
Coronary resistance, Changed value ([2]; average + S.E., basic value 1.03 ± 0.10): 1.42 ± 0.22 Hgmm/ml/min/100 g
Myocardial oxygenization (O2 supply per O2 consumption), Changed value ([2]; average + S.E., basic value 1.62 ± 0.06): 1.79 ± 0.10
A. carotis resistance, Changed value ([2]; average + S.E., basic value 2.04 ± 0.3): 2.19 ± 0.4 Hgmm/ml/min
Function of the left ventricle, Changed value ([2]; average + S.E., basic value 2.74 ± 0.49): 2.22 ± 0.56 mkg/min
A. vertebralis resistance, Changed value ([2]; average + S.E., basic value 3.22 ± 0.61): 3.65 ± 0.32 Hgmm/ml/min
A. femoralis resistance, Changed value ([2]; average + S.E., basic value 3.48 ± 0.45): 3.69 ± 0.68 Hgmm/ml/min
Frequence volume, Changed value ([2]; average + S.E., basic value 8,8 ± 1): 9.5 ± 1.2 mL
Oxygen consumption of the left ventricle, Changed value ([2]; average + S.E., basic value 8.4 ± 0.9): 7.9 ± 1.9 ml/min/100 g
A. femoralis flow, Changed value ([2]; average + S.E., basic value 46 ± 5): 42 ± 5 mL/min
A. vertebralis flow, Changed value ([2]; average + S.E., basic value 54 ± 9): 50 ± 7
Coronary flow, Changed value ([2]; average + S.E., basic value 73 ± 13): 86 ± 13 ml/min/100 g
A. carotis flow, Changed value ([2]; average + S.E., basic value 91 ± 9): 80 ± 10 mL/min
Arterial blood pressure, Changed value ([2]; average + S.E., basic value 147 ± 9): 115 ± 11 Hgmm
Heart frequence/min, Changed value ([2]; average + S.E., basic value 173 ± 8): 160 ± 9 min⁻¹
Minute volume, Changed value ([2]; average + S.E., basic value 1500 ± 153): 1466 ± 233 mL/min
Contractibility of the left ventricle (dp/dt), Changed value ([2]; average + S.E., basic value 5625 ± 557): 4883 ± 419 Hgmm/sec
Total peripherial resistance, Changed value ([2]; average + S.E., basic value 7015 ± 238): 4785 ± 275 dyn. sec. cm^-5
Arterial blood pressure, Duration of effect [3]: 5 min
Arterial blood pressure, Percental difference [3]: -23
Auricle fibrillation threshold, Duration of effect [3]: 9 min
Auricle fibrillation threshold, Percental difference [3]: +48
Ventricle fibrillation threshold, Duration of effect [3]: 12 min
Ventricle fibrillation threshold, Percental difference [3]: +43
Auricle fibrillation threshold, Changed value ([3]; average + S.E., basic value 0.52 ± 0.07): 0.77 ± 0.19 mA
Ventricle fibrillation threshold, Changed value ([3]; average + S.E., basic value 0.70 ± 0.10): 1.00 ± 0.18 mA
Arterial blood pressure, Changed value ([3]; average + S.E., basic value 142 ± 11): 110 ± 16 Hgmm
